Measured values: patent US7247622B2, “Pharmaceutical compositions containing oxapenem-3-carboxylic acids” (Amura Limited, priority 2000, dated 2007)

Assays:
[1] = human serum; cited from earlier work
[2] = Plasma blood levels in mice following subcutaneous administration; type: in vivo; conditions: for bioavailability: sub-cutaneous administration, compared with salts XOB and U
Description: The plasma blood levels in mice (mean of 3 per time point) of compositions XOB, YOB, PFOB and […] were measured at time points of 5, 10, 20 and 30 minutes following subcutaneous (SC) administration at a dose of 50 mg per kg. The results are shown in Table 2 and illustrated in FIG. 1.

E. coli TEM-1 = experiment: MIC by agar dilution (NCCLS), Class A β-lactamases; type: cell-based; conditions: CAZ alone or 2:1 ratio of ceftazidime with oxapenem, unit assumed
Description: (§1) The assays to determine the Minimum Inhibitory Concentration (MIC) were performed by Agar dilution according to NCCLS guidelines (2000).

E. coli ATCC 25922 = experiment: MIC by agar dilution (NCCLS), Class A β-lactamases; type: cell-based; conditions: CAZ alone or 2:1 ratio of ceftazidime with oxapenem, unit assumed
Description: as §1

[3] = Chemical stability: half-life of hydrolysis in phosphate buffer by UV spectroscopy; type: physicochemical; conditions: 37° C., physiological phosphate buffer pH 7.4, 10^−4M oxapenem
Description: The half-lives of hydrolysis were determined at 37° C. in physiological phosphate buffer pH 7.4 by UV spectroscopy at 265 nm at a 10^−4M concentration of oxapenem

[4] = Stability in blood serum, determined microbiologically by agar diffusion test; type: in vitro ADME, bovine
Description: The blood serum stability was determined microbiologically using an agar diffusion test with Escherichia coli TEM 1 (penicillin resistant). The oxapenems were incubated with sterile bovine serum (OXOID) at 37° C. in 0.033% concentration.

C. freundii C2-con = experiment: MIC by agar dilution (NCCLS), de-repressed Class C β-lactamases; type: cell-based; conditions: unit assumed
Description: as §1

S marcescens S2-con = experiment: as above; type: cell-based; conditions: unit assumed
Description: as §1

E. cloacae P99 = experiment: as above; type: cell-based; conditions: unit assumed
Description: as §1

E. cloacae Hennessy = experiment: as above; type: cell-based; conditions: unit assumed
Description: as §1

E. cloacae 84-CON = experiment: as above; type: cell-based; conditions: unit assumed
Description: as §1

E. coli TEM-3 = experiment: MIC by agar dilution (NCCLS), Class A β-lactamases; type: cell-based; conditions: CAZ alone or 2:1 ratio of ceftazidime with oxapenem, unit assumed
Description: as §1

E. coli TEM-6 = experiment: MIC by agar dilution (NCCLS), Class A β-lactamases; type: cell-based; conditions: CAZ alone or 2:1 ratio of ceftazidime with oxapenem, unit assumed
Description: as §1

E. coli TEM-9 = experiment: MIC by agar dilution (NCCLS), Class A β-lactamases; type: cell-based; conditions: CAZ alone or 2:1 ratio of ceftazidime with oxapenem, unit assumed
Description: as §1

E. coli TEM-10 = experiment: MIC by agar dilution (NCCLS), Class A β-lactamases; type: cell-based; conditions: CAZ alone or 2:1 ratio of ceftazidime with oxapenem, unit assumed
Description: as §1

[5] = CAZ alone or 1:1 ratio of ceftazidime with oxapenem
[6] = CAZ alone or 2:1 ratio of ceftazidime with oxapenem

| SMILES | in vivo biological half life [1] | bioavailability [2] | MIC (E. coli TEM-1) [µg/mL] | MIC (E. coli ATCC 25922) [µg/mL] | MIC (C. freundii C2-con; [5]) [µg/mL] | MIC (C. freundii C2-con; [6]) [µg/mL] | MIC (S marcescens S2-con; [5]) [µg/mL] | MIC (E. cloacae Hennessy; [6]) [µg/mL] | MIC (E. cloacae 84-CON; [5]) [µg/mL] | MIC (E. cloacae 84-CON; [6]) [µg/mL] | also measured |
| --- | --- | --- | --- | --- | --- | --- | --- | --- | --- | --- | --- |
| O=C(O)[C@H]1/C(=C/CO)O[C@@H]2CC(=O)N21 [Clavulanate] | 0.7-1.4 hrs | – | – | – | – | – | – | – | – | – | – |
| C[C@H](O)[C@H]1C(=O)N2C(C(=O)O)=C(C(C)(C)CCCN)O[C@H]12 [YOB, (5R,6R,1′S)-3-(4-amino-1,1-dimethylbutyl)-6-(1-hydroxyethyl)-7-oxo-4-oxa-1-azabicyclo[3.2.0]hept-2-ene-2-carboxylic Acid] | – | remarkably superior bioavailability | 0.06 | 0.03 | – | – | – | – | – | – | Conc. (mg/L) 5 min ([2]; plasma, SC 50 mg per kg, 5 min, mean of 3): 40.12 mg/L; Conc. (mg/L) 10 min ([2]; plasma, SC 50 mg per kg, 10 min, mean of 3): 44.88 mg/L; Conc. (mg/L) 20 min ([2]; plasma, SC 50 mg per kg, 20 min, mean of 3): 13.79 mg/L; Conc. (mg/L) 30 min ([2]; plasma, SC 50 mg per kg, 30 min, mean of 3): 10.4 mg/L; Half-live of hydrolysis [3]: 7.0 h; stability in blood serum ([4]; bovine serum, 37° C., compared to XOB): far more stable than XOB in blood serum; Serum half life at 37° C. ([4]; sterile bovine serum, 0.033% concentration): 2.4 h |
| C[C@@H](O)[C@H]1C(=O)N2C(C(=O)O)=C(SCCN=CN)C[C@H]12 [Imipenem] | 0.9 hrs | – | – | – | – | – | – | – | – | – | – |
| CC(C)(O/N=C(\C(=O)N[C@@H]1C(=O)N2C(C(=O)[O-])=C(C[n+]3ccccc3)CS[C@H]12)c1csc(N)n1)C(=O)O [CAZ, Ceftazidime] | 1.7-2.1 hrs | – | 0.25 | 0.25 | 64 | 64 | 1 | > 64 | > 64 | > 64 | MIC (S marcescens S2-con; [6]): 1 µg/mL; MIC (E. cloacae P99; [5]): 32 µg/mL; MIC (E. cloacae P99; [6]): 32 µg/mL; MIC (E. cloacae Hennessy; [5]): > 64 µg/mL; MIC (E. coli TEM-3): 16 µg/mL; MIC (E. coli TEM-6): > 64 µg/mL; MIC (E. coli TEM-9): > 64 µg/mL; MIC (E. coli TEM-10): > 64 µg/mL |
| C[C@@H](O)[C@H]1C(=O)N2C(C(=O)O)=C(C(C)(C)CCCN)O[C@H]12 [(5R,6R,1′R)-3-(4-amino-1,1-dimethylbutyl)-6-(1′-hydroxyethyl)-7-oxo-4-oxa-1-azabicyclo[3.2.0]hept-2-ene-2-carboxylic Acid] | – | remarkably superior bioavailability | – | – | 0.03 | 2 | 0.03 | 4 | 4 | 4 | concentration at 5 min ([2]; mouse, plasma, SC 50 mg per kg, 5 min, mean of 3, read-out: Conc. (mg/L) 5 min): 26.4 mg/L; concentration at 10 min ([2]; mouse, plasma, SC 50 mg per kg, 10 min, mean of 3, read-out: Conc. (mg/L) 10 min): 25.4 mg/L; concentration at 20 min ([2]; mouse, plasma, SC 50 mg per kg, 20 min, mean of 3, read-out: Conc. (mg/L) 20 min): 12.9 mg/L; concentration at 30 min ([2]; mouse, plasma, SC 50 mg per kg, 30 min, mean of 3, read-out: Conc. (mg/L) 30 min): 2.89 mg/L |
| CO/N=C(\C(=O)N[C@@H]1C(=O)N2C(C(=O)O)=C(CSc3nc(=O)c(=O)[nH]n3C)CS[C@H]12)c1csc(N)n1 [Ceftriaxon] | 5.8-8.7 hrs | – | – | – | – | – | – | – | – | – | – |
